Measured values taken from paper PMC11470957, “Principles of paralog-specific targeted protein degradation engaging the C-degron E3 KLHDC2” (Nature Communications, 2024).
Values joined by “and” are separate entries in the source; they are usually repeats but may differ in a detail not shown here. Equal values may be shown once. Read-outs that look alike come from different tables or passages of the source.

Target: BRD4 (Homo sapiens, UniProt O60885)
Assay: Western blot of BRD4 levels after cellular dosing
Settings: for BRD4 (DMSO = 100): Rep1, Rep2

## COC(=O)CNC(=O)Cc1csc(-c2ccc3cccc(OCCN4CCN(C(=O)C[C@@H]5N=C(c6ccc(Cl)cc6)c6c(sc(C)c6C)-n6c(C)nnc65)CC4)c3c2)n1 [SJ46420]
Fig S6h, U2OS Time course, 5uM, 2hr
  BRD4 level, Western blot quantification (DMSO = 100): 126.968 and 100.342
Fig S6h, U2OS Time course, 5uM, 4hr
  BRD4 level, Western blot quantification (DMSO = 100): 91.1641 and 100.137
Fig S6h, U2OS Time course, 5uM, 8hr
  BRD4 level, Western blot quantification (DMSO = 100): 65.7267 and 72.5334
Fig S6h, U2OS Time course, 5uM, 24hr
  BRD4 level, Western blot quantification (DMSO = 100): 56.1641 and 64.2352
Fig S6d, U2OS KO/rescue Dose Response, 0.156 uM
  BRD4 level, Western blot quantification (DMSO = 100): 81.019 and 75.43
Fig S6d, U2OS KO/rescue Dose Response, 0.313 uM
  BRD4 level, Western blot quantification (DMSO = 100): 75.0042 and 85.343
Fig S6d, U2OS KO/rescue Dose Response, 0.625 uM
  BRD4 level, Western blot quantification (DMSO = 100): 69.2459 and 75.342
Fig S6d, U2OS KO/rescue Dose Response, 1.25 uM
  BRD4 level, Western blot quantification (DMSO = 100): 72.3683 and 63.23
Fig S6d, U2OS KO/rescue Dose Response, 2.5 uM
  BRD4 level, Western blot quantification (DMSO = 100): 72.6616 and 79.232
Fig S6d, U2OS KO/rescue Dose Response, 5 uM
  BRD4 level, Western blot quantification (DMSO = 100): 65.5064 and 72.323
MDA-MB-468, 2.5µM, 24 h, Fig S6b
  BRD4 level relative to DMSO (100%): 90 +/- 6.3%
MDA-MB-468, 5µM, 24 h, Fig S6b
  BRD4 level relative to DMSO (100%): 78 +/- 4.3%
MDA-MB-468, 10µM, 24 h, Fig S6b
  BRD4 level relative to DMSO (100%): 68 +/- 3.6%
PC3, 0.16µM, 24 h, Fig S6e
  BRD4 level relative to DMSO (100%): 78 +/- 4.1%
PC3, 0.31µM, 24 h, Fig S6e
  BRD4 level relative to DMSO (100%): 80 +/- 7.3%
PC3, 0.63µM, 24 h, Fig S6e
  BRD4 level relative to DMSO (100%): 72 +/- 4.3%
PC3, 1.3µM, 24 h, Fig S6e
  BRD4 level relative to DMSO (100%): 67 +/- 6.5%
PC3, 2.5µM, 24 h, Fig S6e
  BRD4 level relative to DMSO (100%): 75 +/- 4.7%
PC3, 5µM, 24 h, Fig S6e
  BRD4 level relative to DMSO (100%): 68 +/- 4.8%
PC3, 10µM, 24 h, Fig S6e
  BRD4 level relative to DMSO (100%): 44 +/- 5.7%
PC3 cells, Log SJ46420 1.89279
  BRD4 (DMSO = 100): 90.1763 and 93.433
PC3 cells, Log SJ46420 4
  BRD4 (DMSO = 100): 40.11 and 48.232
SKBR3, 1µM, 2hr, Fig S6g
  BRD4 level relative to DMSO (100%): 102 +/- 3.1%
SKBR3, 1µM, 4hr, Fig S6g
  BRD4 level relative to DMSO (100%): 78 +/- 4.7%
SKBR3, 1µM, 8hr, Fig S6g
  BRD4 level relative to DMSO (100%): 75 +/- 4.5%
SKBR3, 5µM, 2hr, Fig S6g
  BRD4 level relative to DMSO (100%): 104 +/- 6.7%
SKBR3, 5µM, 4hr, Fig S6g
  BRD4 level relative to DMSO (100%): 63 +/- 5.8%
SKBR3, 5µM, 4hr, Fig S6j
  BRD4 level relative to DMSO (100%): 78 +/- 8.2%
SKBR3, 5µM, 8hr, Fig S6g
  BRD4 level relative to DMSO (100%): 55 +/- 5.1%
U2OS DC2KO (KLHDC2 knockout), 5µM, 24 h, Fig 6b
  BRD4 level relative to DMSO (100%): 99 +/- 12%
U2OS KO/Rescue cells, Log SJ46420 1.59176
  BRD4 (DMSO = 100): 106.334 and 102.232
U2OS KO/Rescue, 0.16µM, 24 h, Fig S6d
  BRD4 level relative to DMSO (100%): 92 +/- 9.3%
U2OS KO/Rescue, 0.31µM, 24 h, Fig S6d
  BRD4 level relative to DMSO (100%): 83 +/- 16%
U2OS KO/Rescue, 0.63µM, 24 h, Fig S6d
  BRD4 level relative to DMSO (100%): 69 +/- 12%
U2OS KO/Rescue, 1µM, 24 h, Fig 6c
  BRD4 level relative to DMSO (100%): 90 +/- 4.1%
U2OS KO/Rescue, 1µM, 24 h, Fig 6d
  BRD4 level relative to DMSO (100%): 75 +/- 10%
U2OS KO/Rescue, 1.3µM, 24 h, Fig S6d
  BRD4 level relative to DMSO (100%): 46 +/- 15%
U2OS KO/Rescue, 2.5µM, 24 h, Fig S6d
  BRD4 level relative to DMSO (100%): 26 +/- 2.1%
U2OS KO/Rescue, 5µM, 24 h, Fig S6d
  BRD4 level relative to DMSO (100%): 3.4 +/- 0.69%
U2OS KO/Rescue, 24 h dose
  BRD4 Dmax: ~ 100%
U2OS KO/Rescue, concentration not printed (line after 5µM), 24 h, Fig S6d
  BRD4 level relative to DMSO (100%): 0.51 +/- 0.21%
U2OS, 5µM, 4hr, Fig S6h
  BRD4 level relative to DMSO (100%): 96 +/- 7.2%
U2OS, 5µM, 8hr, Fig S6i
  BRD4 level relative to DMSO (100%): 176 +/- 28%
U2OS, 5µM, 8hr, Fig S6h
  BRD4 level relative to DMSO (100%): 69 +/- 4.4%
U2OS, 5µM, 24 h, Fig 6b
  BRD4 level relative to DMSO (100%): 74 +/- 4.1%
U2OS, 5µM, 24hr, Fig S6h
  BRD4 level relative to DMSO (100%): 60 +/- 5.6%
U2OS, read-out: BRD4 Dmax, U2OS KO/Rescue, 24 h dose
  Dmax: 99.4%
read-out: BRD4 Dmax, PC3, 24 h dose
  Dmax: 59.5%
